The values below come from US10858367B2, “Compounds” (GLAXOSMITHKLINE INTELLECTUAL PROPERTY DEVELOPMENT LIMITED, priority 2017, dated 2020).

Molecules are shown by their SMILES. Structures can show the parent of a compound that is named as a salt.

The test deals with T1, LRRK2 Ser935 phosphorylation in SH-SY5Y cells over-expressing recombinant full length LRRK2 (Homo sapiens, UniProt Q5S007).
T1 construct: A BacMam virus expressing full length recombinant LRRK2 was purchased from Invitrogen; host or cells: SH-SY5Y human neuroblastoma cells transduced with BacMam LRRK2 virus
T1 sequence (Q5S007 whole entry): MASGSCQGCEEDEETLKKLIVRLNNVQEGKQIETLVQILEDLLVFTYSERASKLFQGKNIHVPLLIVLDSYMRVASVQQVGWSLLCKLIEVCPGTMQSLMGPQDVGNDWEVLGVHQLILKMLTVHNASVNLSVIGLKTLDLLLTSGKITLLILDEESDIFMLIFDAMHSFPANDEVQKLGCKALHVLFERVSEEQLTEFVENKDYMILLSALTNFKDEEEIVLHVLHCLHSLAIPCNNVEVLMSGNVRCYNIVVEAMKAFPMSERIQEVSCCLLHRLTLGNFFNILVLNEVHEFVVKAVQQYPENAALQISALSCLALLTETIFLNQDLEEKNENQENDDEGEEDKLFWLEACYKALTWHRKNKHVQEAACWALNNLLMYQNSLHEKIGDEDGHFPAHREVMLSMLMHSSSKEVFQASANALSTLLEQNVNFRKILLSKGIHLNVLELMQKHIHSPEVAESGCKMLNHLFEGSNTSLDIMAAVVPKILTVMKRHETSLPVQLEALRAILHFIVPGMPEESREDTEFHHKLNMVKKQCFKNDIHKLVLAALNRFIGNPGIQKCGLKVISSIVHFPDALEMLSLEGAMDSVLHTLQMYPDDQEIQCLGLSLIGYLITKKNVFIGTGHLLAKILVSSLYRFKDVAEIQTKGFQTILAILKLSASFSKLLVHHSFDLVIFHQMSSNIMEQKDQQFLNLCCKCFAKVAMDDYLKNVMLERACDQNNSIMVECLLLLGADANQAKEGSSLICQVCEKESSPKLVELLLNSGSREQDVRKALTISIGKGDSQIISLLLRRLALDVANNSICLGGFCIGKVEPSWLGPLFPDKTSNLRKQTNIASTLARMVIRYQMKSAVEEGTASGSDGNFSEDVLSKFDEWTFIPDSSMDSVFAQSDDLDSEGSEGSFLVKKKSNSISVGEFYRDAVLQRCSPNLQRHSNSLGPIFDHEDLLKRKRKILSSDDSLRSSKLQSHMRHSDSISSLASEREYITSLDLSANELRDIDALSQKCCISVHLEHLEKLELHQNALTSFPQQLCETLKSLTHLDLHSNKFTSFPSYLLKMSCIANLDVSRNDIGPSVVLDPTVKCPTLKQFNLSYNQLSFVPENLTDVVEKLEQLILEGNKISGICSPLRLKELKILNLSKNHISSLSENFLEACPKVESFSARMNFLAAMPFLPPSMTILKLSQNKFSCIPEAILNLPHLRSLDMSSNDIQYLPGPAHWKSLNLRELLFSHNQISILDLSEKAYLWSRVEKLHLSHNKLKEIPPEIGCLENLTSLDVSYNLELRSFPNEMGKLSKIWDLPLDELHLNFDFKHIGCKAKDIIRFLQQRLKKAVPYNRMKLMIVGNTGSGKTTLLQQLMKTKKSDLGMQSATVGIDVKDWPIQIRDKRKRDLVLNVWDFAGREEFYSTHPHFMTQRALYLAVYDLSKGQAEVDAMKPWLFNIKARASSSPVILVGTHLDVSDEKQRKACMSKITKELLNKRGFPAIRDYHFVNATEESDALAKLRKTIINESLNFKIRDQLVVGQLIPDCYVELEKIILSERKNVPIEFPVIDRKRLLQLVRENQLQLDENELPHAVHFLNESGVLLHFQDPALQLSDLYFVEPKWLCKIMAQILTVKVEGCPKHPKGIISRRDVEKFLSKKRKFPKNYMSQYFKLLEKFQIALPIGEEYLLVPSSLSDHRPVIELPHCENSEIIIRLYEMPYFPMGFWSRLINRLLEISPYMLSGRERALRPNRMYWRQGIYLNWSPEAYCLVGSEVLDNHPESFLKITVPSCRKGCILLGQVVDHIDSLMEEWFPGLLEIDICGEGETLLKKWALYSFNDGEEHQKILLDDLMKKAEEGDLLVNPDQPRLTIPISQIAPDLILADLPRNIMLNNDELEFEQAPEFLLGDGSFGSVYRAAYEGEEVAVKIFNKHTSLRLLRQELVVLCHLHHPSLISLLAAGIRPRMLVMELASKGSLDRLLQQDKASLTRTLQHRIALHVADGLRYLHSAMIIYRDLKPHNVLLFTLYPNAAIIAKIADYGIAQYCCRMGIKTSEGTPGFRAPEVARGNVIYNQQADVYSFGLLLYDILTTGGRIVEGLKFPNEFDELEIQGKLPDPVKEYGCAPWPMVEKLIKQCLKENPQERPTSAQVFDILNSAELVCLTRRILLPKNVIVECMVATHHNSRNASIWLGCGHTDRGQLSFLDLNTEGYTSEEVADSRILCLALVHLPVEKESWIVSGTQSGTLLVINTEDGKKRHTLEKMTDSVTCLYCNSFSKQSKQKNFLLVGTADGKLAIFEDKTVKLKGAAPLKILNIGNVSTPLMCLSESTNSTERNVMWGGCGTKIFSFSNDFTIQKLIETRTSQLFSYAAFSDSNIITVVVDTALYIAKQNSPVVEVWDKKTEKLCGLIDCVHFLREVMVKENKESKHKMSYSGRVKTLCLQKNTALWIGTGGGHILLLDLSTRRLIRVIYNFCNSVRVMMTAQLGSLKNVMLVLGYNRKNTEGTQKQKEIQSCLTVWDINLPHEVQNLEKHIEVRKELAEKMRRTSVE
The experiment in a line: Recombinant cellular LRRK2 AlphaScreen assay. The class given is cell-based. The following applies: human neuroblastoma SH-SY5Y cells, BacMam full length LRRK2, 60 minutes with compound, read-out: pIC50 in the recombinant cellular LRRK2 AlphaScreen assay (converted). From the text: b. Recombinant Cellular LRRK2 AlphaScreen Assay
To determine the activity of compounds against LRRK2 kinase activity in cells, the observed LRRK2 kinase-dependent modulation of LRRK2 Ser 935 phosphorylation (Dzamko et al., 2010, Biochem. J. 430: 405-413) was utilized to develop a quantitative 384 well plate-based immunoassay of LRRK2 Ser935 phosphorylation in the human neuroblastoma cell line SH-SY5Y, engineered to over-express recombinant full length LRRK2 protein.
A BacMam virus expressing full length recombinant LRRK2 was purchased from Invitrogen and amplified by inoculation of SF-9 cells at MOI 0.3 for 4-5 days in Sf-900 III SFM medium supplemented with 3% fetal bovine serum. Infected cell cultures were then centrifuged at 2000 g for 20 minutes, viral supernatant titer determined by anti-gp64 plaque assay and stored at 4° C.
Affinity-purified anti-phospho LRRK2 Ser935 sheep polyclonal antibody (Dzamko et al., 2010, Biochem. J. 430: 405-413) was biotinylated by standard methods (PerkinElmer). Anti-LRRK2 rabbit polyclonal antibody was purchased from Novus Biologicals. AlphaScreen Protein A IgG Kit (including acceptor and donor beads) was purchased from Perkin Elmer.
SH-SY5Y cells were grown in DMEM/F12 medium with 10% dialysed fetal bovine serum and harvested by treatment with 0.5% trypsin-EDTA for 5 minutes at 37° C. followed by centrifugation at 1000 rpm for 4 minutes. The cell pellet was resuspended in Opti-MEM reduced serum media (Invitrogen) at 200,000 cells/ml and mixed with the BacMam LRRK2 virus at MOI=50. 50 μl cell solutions were then dispensed to each well of a 384-well plate and incubated at 37° C., 5% CO2 for 24 hours.
Serial dilutions of test compounds were prepared in Opti-MEM reduced serum media (Invitrogen) and 5.6 ul transferred from compound plate to cell assay plate to achieve a top final assay concentration of 10 uM. DMSO was used in certain wells as controls. Cells were incubated at 37° C., 5% CO2 for 60 minutes. The medium was then removed and cells lysed by addition of 20 ul cell lysis buffer (Cell Signaling Technology) and incubation at 4° C. for 20 minutes. 10 ul of antibody/acceptor bead mix [(1/1000 biotinylated-pS935 LRRK2 antibody, 1/1000 total-LRRK2 antibody, 1/100 Acceptor beads in AlphaScreen detection buffer (25 mM Hepes (pH 7.4), 0.5% Triton X-100, 1 mg/ml Dextran 500 and 0.1% BSA)] was then added to each well and plates incubated for 2 hours at ambient temperature in the dark. 10 μl of donor beads solution (1/33.3 donor beads in AlphaScreen detection buffer) was then added to each well. Following incubation for a further 2 hours at ambient temperature in the dark, plates were read on an EnVision™ plate reader at emission 520-620 nm with excitation 680 nm. Dose response curve data was based on sigmoidal dose-response model.
(Bead proximity is the source of the signal in Alpha formats.)
Take `Cc1nc(N2CC3CC2CO3)cc(-n2ncc3cc(C)c([C@H]4CC[C@@](C)(O)CC4)cc32)n1` (single isomer, unassigned) [Example E9]: the IC50 was not above 1000 nM.

On to `Cc1nc(N2CC3CC2CO3)cc(-n2ncc3cc(C)c([C@H]4CC[C@](C)(O)CC4)cc32)n1` (single isomer, unassigned) [Example E10], for which the IC50 was not above 1000 nM.

`COc1nc(N2CC3CC2CO3)cc(-n2ncc3cc(C)c([C@H]4CC[C@@](C)(O)CC4)cc32)n1` (single isomer, unassigned) [Example E11]: the IC50 was not above 10 nM.

On to `COc1nc(N2CC3CC2CO3)cc(-n2ncc3cc(C)c([C@H]4CC[C@](C)(O)CC4)cc32)n1` (single isomer, unassigned) [Example E12], for which the IC50 was not above 1000 nM.

On to `COc1nc(N2C[C@H]3C[C@@H]2CO3)cc(-n2ncc3cc(C)c(C4CCN(C5CCOC5)CC4)cc32)n1` (single isomer, unassigned) [Example E13], for which the IC50 is not above 1000 nM.

With `COc1nc(N2C[C@@H]3C[C@H]2CO3)cc(-n2ncc3cc(C)c(C4CCN(C5CCOC5)CC4)cc32)n1` (single isomer, unassigned) [Example E15], the IC50 is not above 1000 nM.

For the compound `COc1nc(N2C[C@H]3C[C@@H]2CO3)cc(-n2ncc3cc(C)c(C4CCN(CCO)CC4F)cc32)n1` (single isomer, unassigned) [Example E17], the IC50 was not above 10 nM.

`COc1nc(N2CC3CC2CO3)cc(-n2ncc3cc(C)c(C4CCN(CCO)CC4F)cc32)n1` (single isomer, unassigned) [Example E18]: the IC50 is not above 10 nM.

With `COc1nc(N2C[C@@H]3C[C@H]2CO3)cc(-n2ncc3cc(C)c(C4CCN(CCO)CC4F)cc32)n1` (single isomer, unassigned) [Example E19], the IC50 was not above 1000 nM.

Regarding `Cc1nc(N2C[C@@H]3C[C@H]2CO3)cc(-n2ncc3cc(C)c(C4CCN(CCO)CC4F)cc32)n1` (single isomer, unassigned) [Example E21], the IC50 is not above 1000 nM.

As for `Cc1nc(N2CC3CC2CO3)cc(-n2ncc3cc(C)c(C4CCN(CCO)CC4F)cc32)n1` (single isomer, unassigned) [Example E23], the IC50 is not above 1000 nM.

For `Cc1nc(N2C[C@@H]3C[C@H]2CO3)cc(-n2ncc3cc(Cl)c(N4CCC(C)(O)C4)cc32)n1` (single isomer, unassigned) [Example E47], the IC50 was not above 1000 nM.

Regarding `Cc1nc(N2C[C@H]3C[C@@H]2CO3)cc(-n2ncc3cc(Cl)c(N4CCC(C)(O)C4)cc32)n1` (single isomer, unassigned) [Example E49], the IC50 is not above 1000 nM.

With `COc1nc(N2CC3CCC2CO3)cc(-n2ncc3cc(C)c(C4CCN(C5CCOC5)CC4)cc32)n1` (single isomer, unassigned) [Example E64, 5-(2-methoxy-6-(5-methyl-6-(1-(tetrahydrofuran-3-yl)piperidin-4-yl)-1H-indazol-1-yl)pyrimidin-4-yl)-2-oxa-5-azabicyclo[2.2.2]octane], the IC50 is not above 1000 nM.

Take `COc1nc(N2C[C@H]3C[C@@H]2CO3)cc(-n2ncc3cc(Cl)c(C4CCN(C5CCOC5)CC4)cc32)n1` (single isomer, unassigned) [Example E67]: the IC50 is not above 1000 nM.

As to `COc1nc(N2C[C@@H]3C[C@H]2CO3)cc(-n2ncc3cc(Cl)c(C4CCN(C5CCOC5)CC4)cc32)n1` (single isomer, unassigned) [Example E69], the IC50 is not above 1000 nM.

In the case of `COc1nc(N2C[C@H]3C[C@@H]2CO3)cc(-n2ncc3cc(C)c(C4CCC(N5CCOCC5)CC4)cc32)n1` (single isomer, unassigned) [Example E71], the IC50 was not above 1000 nM.

Turning to `Cc1nc(N2CC3CC2CC3C(=O)O)cc(-n2ncc3cc(C)c(C4CCC(C)(O)CC4)cc32)n1` (single isomer, unassigned) [Example E75, 2-(6-(6-(cis-4-hydroxy-4-methylcyclohexyl)-5-methyl-1H-indazol-1-yl)-2-methylpyrimidin-4-yl)-2-azabicyclo[2.2.1]heptane-5-carboxylic Acid], the IC50 was not above 10 nM.

Take `Cc1nc(N2CC3CC2CC3C(=O)O)cc(-n2ncc3cc(C)c(C4CCC(C)(O)CC4)cc32)n1` (single isomer, unassigned) [Example E76, 2-(6-(6-(cis-4-hydroxy-4-methylcyclohexyl)-5-methyl-1H-indazol-1-yl)-2-methylpyrimidin-4-yl)-2-azabicyclo[2.2.1]heptane-5-carboxylic Acid, TFA Salt]: the IC50 was not above 10 nM.

With `Cc1nc(N2CC3CC(C2)C3C(=O)O)cc(-n2ncc3cc(C)c([C@H]4CC[C@@](C)(O)CC4)cc32)n1` (single isomer, unassigned) [Example E77, Cis-3-{6-[6-(4-Hydroxy-4-methyl-cyclohexyl)-5-methyl-indazol-1-yl]-2-methyl-pyrimidin-4-yl}-3-aza-bicyclo[3.1.1]heptane-6-carboxylic Acid], the IC50 was not above 1000 nM.

Regarding `Cc1nc(N2CC3CC(C2)C3C(=O)O)cc(-n2ncc3cc(C)c(C4CCC(C)(O)CC4)cc32)n1` (single isomer, unassigned) [Example E78, Cis-3-{6-[6-(4-Hydroxy-4-methyl-cyclohexyl)-5-methyl-indazol-1-yl]-2-methyl-pyrimidin-4-yl}-3-aza-bicyclo[3.1.1]heptane-6-carboxylic Acid], the IC50 was not above 10 nM.

`Cc1nc(N2CC3CC2CC3C(=O)O)cc(-n2ncc3cc(C)c(C4CCOCC4)cc32)n1` (single isomer, unassigned) [Example E82, 2-{2-Methyl-6-[5-methyl-6-(tetrahydro-pyran-4-yl)-indazol-1-yl]-pyrimidin-4-yl}-2-aza-bicyclo[2.2.1]heptane-5-carboxylic Acid]: the IC50 was not above 1000 nM.

Consider `COc1nc(N2CC3CC2CC3C(=O)O)cc(-n2ncc3cc(Cl)c(O[C@H]4CCOC4)cc32)n1` (single isomer, unassigned) [Example E84], for which the IC50 is not above 1000 nM.

For `COc1nc(N2CC3CC2CC3C(=O)O)cc(-n2ncc3cc(Cl)c(O[C@@H]4CCOC4)cc32)n1` (single isomer, unassigned) [Example E85], the IC50 is not above 1000 nM.

For the compound `COc1nc(N2CC3CC2CO3)cc(-n2ncc3cc(C)c(C4CCN(C5COC5)CC4O)cc32)n1` (single isomer, unassigned) [Example E132], the IC50 is not above 1000 nM.

Regarding `COc1nc(N2CC3CC2CO3)cc(-n2ncc3cc(C)c(C4CCN(C5CCOC5)CC4O)cc32)n1` (single isomer, unassigned) [Example E135], the IC50 is not above 1000 nM.

Take `Cc1nc(N2CC3CC2CO3)cc(-n2ncc3cc(C)c(C4CCN([C@H]5CCOC5)CC4O)cc32)n1` (single isomer, unassigned) [Example E137]: the IC50 was not above 1000 nM.

Regarding `Cc1nc(N2CC3CC2CO3)cc(-n2ncc3cc(C)c(C4CCN(C5COC5)CC4O)cc32)n1` (single isomer, unassigned) [Example E141], the IC50 is not above 1000 nM.

In the case of `Cc1nc(N2C[C@H]3C[C@@H]2CO3)cc(-n2ncc3cc(C)c(C4CCN(C5COC5)CC4(C)O)cc32)n1` (single isomer, unassigned) [Example E147], the IC50 is not above 1000 nM.

As to `Cc1nc(N2C[C@H]3C[C@@H]2CO3)cc(-n2ncc3cc(C)c(C4CCN(C5CCOC5)CC4F)cc32)n1` (single isomer, unassigned) [Example E149], the IC50 was not above 1000 nM.

As for `Cc1nc(N2C[C@@H]3C[C@H]2CO3)cc(-n2ncc3cc(C)c(C4CCN(C5CCOC5)CC4F)cc32)n1` (single isomer, unassigned) [Example E151], the IC50 was not above 1000 nM.
